Data published in PMC6359172, “Symmetrical Heterocyclic Cage Skeleton: Synthesis, Urease Inhibition Activity, Kinetic Mechanistic Insight, and Molecular Docking Analyses” (Molecules, 2019).
Where two headings read alike, the source gives them in different places.

Target: T1, jack bean urease (Canavalia ensiformis, UniProt P07374)
T1 construct: purchased Sigma (St. Louis, MO, USA)
Test: biochemical
Description: The urease activity was determined by measuring the amount of ammonia produced with the indophenols method previously described. The reaction mixtures, comprising 20 µL of enzyme (jack bean urease, 5 U/mL) and 20 μL of test compounds in 50 μL buffer (100 mM urea, 0.01 M K2HPO4, 1 mM EDTA, and 0.01 M […], pH 8.2), were incubated for 30 min at 37 °C in a 96-well plate. Briefly, 50 μL each of phenol reagents (1%, w/v phenol and 0.005%, w/v sodium nitroprusside) and 50 μL of alkali reagent (0.5%, w/v NaOH and 0.1% active chloride NaOCl) were added to each well. The absorbance at 625 nm was measured after 10 min, using a microplate reader (OPTI Max, Tunable). All reactions were performed in triplicate. The urease inhibition activities were calculated according to the following formula:Urease inhibition activity (%) = (ODcontrol − ODsample × 100)/ODcontrol where ODcontrol and ODsample represents the optical densities in the absence and presence of the sample, respectively. Thiourea was used as the standard inhibitor for urease.

T1 sequence (P07374 whole entry, looked up): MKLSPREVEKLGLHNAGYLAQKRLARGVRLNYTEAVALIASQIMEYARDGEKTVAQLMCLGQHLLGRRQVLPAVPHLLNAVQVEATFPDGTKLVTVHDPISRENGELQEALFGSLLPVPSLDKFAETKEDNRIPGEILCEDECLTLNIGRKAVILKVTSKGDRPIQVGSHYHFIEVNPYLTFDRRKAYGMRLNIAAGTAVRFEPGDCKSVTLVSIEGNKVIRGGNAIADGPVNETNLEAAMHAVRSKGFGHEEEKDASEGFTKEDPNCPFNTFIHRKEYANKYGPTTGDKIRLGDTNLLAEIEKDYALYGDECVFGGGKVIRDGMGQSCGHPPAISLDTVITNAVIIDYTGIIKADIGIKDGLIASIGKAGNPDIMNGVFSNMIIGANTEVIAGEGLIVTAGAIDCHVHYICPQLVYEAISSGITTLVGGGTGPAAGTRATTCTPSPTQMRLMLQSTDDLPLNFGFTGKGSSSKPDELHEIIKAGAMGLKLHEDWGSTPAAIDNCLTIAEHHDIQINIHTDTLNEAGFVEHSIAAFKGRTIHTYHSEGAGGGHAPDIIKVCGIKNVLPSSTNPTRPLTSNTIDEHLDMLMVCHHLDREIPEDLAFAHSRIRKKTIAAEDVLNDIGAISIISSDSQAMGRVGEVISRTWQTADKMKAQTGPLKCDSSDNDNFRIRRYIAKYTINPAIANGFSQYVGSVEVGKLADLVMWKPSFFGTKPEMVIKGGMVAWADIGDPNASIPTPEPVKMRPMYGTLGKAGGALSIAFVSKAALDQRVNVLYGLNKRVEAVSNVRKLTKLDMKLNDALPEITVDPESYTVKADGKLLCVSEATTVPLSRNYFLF

Row | SMILES | IC50 (jack bean urease 5 U/mL, 100 mM urea, pH 8.2, 30 min 37 °C, read-out: Urease Inhibition IC50) [µM] | IC50 [µM]
1 | NC(N)=S [Thio-Urea, Thiourea, reference compound] | 20.7 ± 0.45 | 
2 | COc1ccc(-c2n[nH]c(=S)n2/N=C/c2cccc(/C=N/n3c(-c4ccc(OC)cc4)n[nH]c3=S)n2)cc1 [Compound 4] |  | 29.3 ± 3.32
3 | COc1ccc(-c2n[nH]c(=O)n2/N=C/c2cccc(/C=N/n3c(-c4ccc(OC)cc4)n[nH]c3=O)n2)cc1 [Compound 3] |  | 18.9 ± 1.81
